This is an account of results in US20120142646A1, “Novel Compounds 621” (priority 2006, published 2012).

Structures are written as SMILES.

The test addresses T1, recombinant human α1D receptor (Homo sapiens, UniProt P25100).
T1 construct: expressed in transfected cells; host or cells: HEK293
T1 sequence (P25100 1-572): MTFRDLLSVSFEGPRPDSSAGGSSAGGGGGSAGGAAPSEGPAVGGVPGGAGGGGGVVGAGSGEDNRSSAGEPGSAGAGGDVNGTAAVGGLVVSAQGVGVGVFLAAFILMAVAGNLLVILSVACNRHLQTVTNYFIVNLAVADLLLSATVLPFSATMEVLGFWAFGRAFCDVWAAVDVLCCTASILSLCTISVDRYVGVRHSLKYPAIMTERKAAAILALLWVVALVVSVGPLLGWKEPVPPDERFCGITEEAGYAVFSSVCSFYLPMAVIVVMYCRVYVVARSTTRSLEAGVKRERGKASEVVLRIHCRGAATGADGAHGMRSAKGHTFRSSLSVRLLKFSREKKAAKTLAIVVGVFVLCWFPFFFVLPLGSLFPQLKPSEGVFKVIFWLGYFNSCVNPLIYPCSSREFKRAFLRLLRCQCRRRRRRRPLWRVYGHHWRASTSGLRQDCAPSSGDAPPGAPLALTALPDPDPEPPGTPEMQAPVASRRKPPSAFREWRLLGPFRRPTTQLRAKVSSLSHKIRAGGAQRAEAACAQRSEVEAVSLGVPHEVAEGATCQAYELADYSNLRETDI
Kind of test: Adrenergic α1D [3H]-prazosin binding, HEK293 membranes. To be noted: inhibition of [3H]-prazosin binding (0.3 nM), read-out: α1 bind pIC50 (converted). As to the method: Membranes were prepared from human embryonic kidney 293 (HEK293) cells expressing recombinant human α1D receptor. These were diluted in Assay Buffer (50 mM HEPES, 1 mM EDTA, pH 7.4) to provide a final concentration of membranes that gave a clear window between maximum and minimum specific binding.
Assays were performed in U-bottomed 96-well polypropylene plates. 10 μL [^3H]-prazosin (0.3 nM final concentration) and 10 μL of test compound (10× final concentration) were added to each test well. For each assay plate 8 replicates were obtained for [^3H]-prazosin binding in the presence of 10 μL vehicle (10% (v/v) DMSO in Assay Buffer; defining maximum binding) or 10 μL BMY7378 (10 μM final concentration; defining non-specific binding (NSB)). Membranes were then added to achieve a final volume of 100 μL. The plates were incubated for 2 hours at room temperature and then filtered onto PEI coated GF/B filter plates, pre-soaked for 1 hour in Assay Buffer, using a 96-well plate Tomtec cell harvester. Five washes with 250 μL wash buffer (50 mM HEPES, 1 mM EDTA, pH 7.4) were performed at 4° C. to remove unbound radioactivity. […] The plates were sealed (TopSeal A) and filter-bound radioactivity was measured with a scintillation counter (TopCount, Packard BioScience) using a 3-minute counting protocol.
Total specific binding (B0) was determined by subtracting the mean NSB from the mean maximum binding. […]

For the compound `CCCCC[C@@H](C)N(CCNCCc1ccc(O)c2c1OCC(=O)N2)C(=O)CCNCCc1ccccc1` [Example 60, (R)—N-(Heptan-2-yl)-N-(2-(2-(5-hydroxy-3-oxo-3,4-dihydro-2H-benzo[b][1,4]oxazin-8-yl)ethylamino)ethyl)-3-(phenethylamino)propanamide bis(trifluoroacetate)], the IC50 was 100 nM.
